The values below come from PMC8286840, “Identifying SARS-CoV-2 antiviral compounds by screening for small molecule inhibitors of Nsp3 papain-like protease” (Biochemical Journal, 2021).

The target in experiment [1] is T1, SARS-CoV-2 PLpro (nsp3 1564–1878) (Severe acute respiratory syndrome coronavirus 2, UniProt P0DTD1). The experiment in a line: biochemical. More on the design: FRET-quenched peptide (Pro3) cleavage by PLpro, 10 min pre-incubation, slope over 20 min, normalised to no-compound control. To be noted: low concentration screen, read-out: % of control remaining.
Experiment [2] has as its target T1, SARS-CoV-2 PLpro (nsp3 1564–1878). The experiment in a line: biochemical. More on the design: FRET-quenched peptide (Pro3) cleavage by PLpro, 10 min pre-incubation, slope over 20 min, normalised to no-compound control. To be noted: high concentration screen, read-out: % of control remaining.

Structures are written as SMILES. Counter-ions that a name gives are not always drawn. Like-named read-outs stand apart in the source and are kept apart here.

As to `COc1cc([C@@H]2c3cc4c(cc3[C@@H](O[C@@H]3O[C@@H]5CO[C@@H](C)O[C@H]5[C@H](O)[C@H]3O)[C@H]3COC(=O)[C@H]23)OCO4)cc(OC)c1O` [Etoposide], the remaining activity at 1.25 µM stood at 103% in experiment [1] (Well no.=454), 99.8% in experiment [1] (Well no.=1670) and 102% in experiment [1] (Well no.=6154). The remaining activity at 3.75 µM is 97.1% in experiment [2] (Well no.=454), 99.3% in experiment [2] (Well no.=1670), 102% in experiment [2] (Well no.=3279) and 103% in experiment [2] (Well no.=6154).
In the case of `Cc1ccc(-c2ncc(Cl)cc2-c2ccc(S(C)(=O)=O)cc2)cn1` [Etoricoxib], the remaining activity at 1.25 µM in experiment [1] (Well no.=1925) came to 106%. In addition, the remaining activity at 3.75 µM in experiment [2] (Well no.=1925) is 106%.
Turning to `CCOC(=O)/C=C(C)/C=C/C=C(C)/C=C/c1c(C)cc(OC)c(C)c1C` [Etretinate], in experiment [1] (Well no.=2070), the remaining activity at 1.25 µM is 102%. In addition, the remaining activity at 3.75 µM in experiment [2] (Well no.=2070) was determined as 101%.
With `CC12CCC(CC1)C(C)(C)O2` [Eucalyptol], the remaining activity at 1.25 µM in experiment [1] (Well no.=6874) came to 99.2%. For the same molecule, the remaining activity at 3.75 µM in experiment [2] (Well no.=6874) came to 99.2%.
Consider `COc1ccc([C@@H]2OC[C@@H]3[C@H]2CO[C@H]3c2ccc(OC)c(OC)c2)cc1OC` [Eudesmine], for which the remaining activity at 1.25 µM in experiment [1] (Well no.=3117) was 95.1%. The remaining activity at 3.75 µM in experiment [2] (Well no.=3117) stood at 88.7%.
Turning to `C=CCc1ccc(O)c(OC)c1` [Eugenol], the remaining activity at 1.25 µM in experiment [1] (Well no.=4005) is 92.8%. The remaining activity at 3.75 µM in experiment [2] (Well no.=4005) was 96.7%.
Turning to `CC(=O)O[C@H]1[C@H]2[C@@H](OC(=O)Cc3ccccc3)[C@@H](C)C[C@]2(OC(C)=O)C(=O)/C(C)=C/[C@@H]2[C@H](CC[C@@]13CO3)C2(C)C` [Euphorbiasteroid], the remaining activity at 1.25 µM in experiment [1] (Well no.=3605) was 103%. For the same molecule, the remaining activity at 3.75 µM in experiment [2] (Well no.=3605) worked out at 109%.
On to `Cc1cc(C)c2c(c1)[C@@H](N(Cc1cc(C(F)(F)F)cc(C(F)(F)F)c1)c1nnn(C)n1)CCCN2C[C@H]1CC[C@H](C(=O)O)CC1` [Evacetrapib (LY2484595)], for which, in experiment [1] (Well no.=5320), the remaining activity at 1.25 µM came out at 96.7%. Further, the remaining activity at 3.75 µM in experiment [2] (Well no.=5320) worked out at 100%.
`Cc1cc(-c2ccc(/N=N/c3ccc4c(S(=O)(=O)O)cc(S(=O)(=O)O)c(N)c4c3O)c(C)c2)ccc1/N=N/c1ccc2c(S(=O)(=O)O)cc(S(=O)(=O)O)c(N)c2c1O` [Evans Blue]: the remaining activity at 1.25 µM in experiment [1] (Well no.=8652) came to 99.2%. The remaining activity at 3.75 µM in experiment [2] (Well no.=8652) is 92.3%.
`CO[C@H]1C[C@@H]2CC[C@@H](C)[C@@](O)(O2)C(=O)C(=O)N2CCCC[C@H]2C(=O)O[C@H]([C@H](C)C[C@@H]2CC[C@@H](OCCO)[C@H](OC)C2)CC(=O)[C@H](C)/C=C(\C)[C@@H](O)[C@@H](OC)C(=O)[C@H](C)C[C@H](C)/C=C/C=C/C=C/1C` [Everolimus]: the remaining activity at 1.25 µM in experiment [1] (Well no.=8740) is 90.8%. Also, in experiment [2] (Well no.=8740), the remaining activity at 3.75 µM came out at 87.3%.
Regarding `C=C1C[C@@H]2[C@H](CC[C@]3(C)C(=O)CC[C@@H]23)[C@@]2(C)C=CC(=O)C=C12` [Exemestane], the remaining activity at 1.25 µM in experiment [1] (Well no.=1623) turned out to be 104%. Also, the remaining activity at 3.75 µM in experiment [2] (Well no.=1623) is 102%.
As for `CCOC(=O)[C@@H](N)CCC(=O)N[C@@H](CSCc1ccccc1)C(=O)N[C@@H](C(=O)OCC)c1ccccc1` [Ezatiostat], the remaining activity at 1.25 µM in experiment [1] (Well no.=8366) came out at 91%. Further, the remaining activity at 3.75 µM in experiment [2] (Well no.=8366) was 90.3%.
Consider `O=C1[C@H](CC[C@H](O)c2ccc(F)cc2)[C@@H](c2ccc(O)cc2)N1c1ccc(F)cc1` [Ezetimibe], for which, in experiment [1] (Well no.=8428), the remaining activity at 1.25 µM came to 91.6%. Besides, the remaining activity at 3.75 µM in experiment [2] (Well no.=8428) was 89.1%.
For the molecule `NC(N)=Nc1nc(CSCC/C(N)=N/S(N)(=O)=O)cs1` [FAMOTIDINE], the remaining activity at 1.25 µM in experiment [1] (Well no.=471) stood at 103%; in experiment [1] (Well no.=1740), 101%; in experiment [1] (Well no.=6622), 104%. Moreover, the results for the remaining activity at 3.75 µM in experiment [2] (Well no.=471), in experiment [2] (Well no.=1740) and in experiment [2] (Well no.=6622) were 104%, 101% and 106%, respectively.
As to `Cc1nc(C(=O)NCC(=O)O)c(O)c2ccc(Oc3ccccc3)cc12` [FG-4592], in experiment [1] (Well no.=4995), the remaining activity at 1.25 µM was determined as 102%. Moreover, in experiment [2] (Well no.=4995), the remaining activity at 3.75 µM amounted to 105%.
In the case of `Cc1cc([N+](=O)[O-])ccc1NS(=O)(=O)c1cc(Cl)ccc1Cl` [FH535], the remaining activity at 1.25 µM in experiment [1] (Well no.=8814) was 96.3%. In addition, the remaining activity at 3.75 µM in experiment [2] (Well no.=8814) turned out to be 98.3%.
Take `O=S(=O)(NC1CCCCC1)c1ccc2c(c1)C(=NO)c1cc(S(=O)(=O)NC3CCCCC3)ccc1-2` [FIN56]: the remaining activity at 1.25 µM was found to be 99.6% in experiment [1] (Well no.=6740) and 93.4% in experiment [1] (Well no.=8726). The results for the remaining activity at 3.75 µM in experiment [2] (Well no.=6740) and in experiment [2] (Well no.=8726) were 97.8% and 94.6%, respectively.
For `C=CC[C@@H]1/C=C(\C)C[C@H](C)C[C@H](OC)[C@H]2O[C@@](O)(C(=O)C(=O)N3CCCC[C@H]3C(=O)O[C@H](/C(C)=C/[C@@H]3CC[C@@H](O)[C@H](OC)C3)[C@H](C)[C@@H](O)CC1=O)[C@H](C)C[C@@H]2OC` [FK-506 (Tacrolimus)], the remaining activity at 1.25 µM in experiment [1] (Well no.=5168) came to 94%. In experiment [2] (Well no.=5168), the remaining activity at 3.75 µM was 97.7%.
In the case of `Cc1ccc(C(=O)COC(=O)c2cccc(NC(=O)c3ccc([N+](=O)[O-])cc3[N+](=O)[O-])c2)cc1` [FM19G11], the remaining activity at 1.25 µM in experiment [1] (Well no.=5606) came to 93.7%. Further, the remaining activity at 3.75 µM in experiment [2] (Well no.=5606) was 96.9%.
For `COC(=O)c1c(C)[nH]c(C)c1C(=O)c1ccccc1Cc1ccccc1` [FPL 64176], the remaining activity at 1.25 µM in experiment [1] (Well no.=713) came out at 97.6%. The remaining activity at 3.75 µM in experiment [2] (Well no.=713) turned out to be 94.1%.
Turning to `COC(=O)[C@H](CCSC)NC(=O)c1ccc(NC[C@@H](N)CS)cc1-c1ccccc1` [FTI-277 (hydrochloride)], the remaining activity at 1.25 µM in experiment [1] (Well no.=8508) was 101%. The remaining activity at 3.75 µM in experiment [2] (Well no.=8508) worked out at 102%.
As to `CC(=O)OCC(CCn1cnc2cnc(N)nc21)COC(C)=O` [Famciclovir], the remaining activity at 1.25 µM in experiment [1] (Well no.=2074) came to 101%. The remaining activity at 3.75 µM in experiment [2] (Well no.=2074) is 104%.
Consider `CC(C)=CCC/C(C)=C/CC/C(C)=C/CSc1ccccc1C(=O)O` [Farnesylthiosalicylic acid], for which, in experiment [1] (Well no.=567), the remaining activity at 1.25 µM stood at 102%. Further, the remaining activity at 3.75 µM in experiment [2] (Well no.=567) was determined as 102%.
As to `O=C1c2ccccc2-[n+]2ccc3c([nH]c4ccccc43)c21` [Fascaplysin, Synthetic], in experiment [1] (Well no.=2458), the remaining activity at 1.25 µM is 89%. The remaining activity at 3.75 µM in experiment [2] (Well no.=2458) came to 82.7%.
On to `O=S(=O)(c1cccc2cnccc12)N1CCCNCC1` [Fasudil hydrochloride - 1-(5-Isoquinolinesulfonyl)homopiperazine hydrochloride], for which the remaining activity at 1.25 µM in experiment [1] (Well no.=2338) stood at 97.4%. Moreover, the remaining activity at 3.75 µM in experiment [2] (Well no.=2338) was 99%.
Regarding `CCCc1cc(-c2nc(-c3ccc(C)cc3)cs2)ccn1` [Fatostatin HBr], the remaining activity at 1.25 µM in experiment [1] (Well no.=8822) amounted to 94.2%. The remaining activity at 3.75 µM in experiment [2] (Well no.=8822) was 92.8%.
